Measured values as given in the supplement of paper PMC3937590.

Assays:
Experiment in all cases: -log10 GI50 (growth inhibition 50%) (-log10(M)); higher = more potent growth inhibition
184A1 = test system: 184A1
Outline: (§1)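 Breast cancer cell lines were treated with each compound for 72 hours at nine doses in 1:5 serial dilution, in triplicate, and luminescence was read against a time-zero plate. A Gompertz curve was fitted to the dose-response data by nonlinear least squares to obtain GI50, the molar concentration giving the set level of growth inhibition, which is reported as its negative logarithm. The logarithm is base 10, and values equal to the top dose carry a < qualifier.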

BT483 = test system: BT483
Outline: as §1

HCC1187 = test system: HCC1187
Outline: as §1

HCC1954 = test system: HCC1954
Outline: as §1

HCC38 = test system: HCC38
Outline: as §1

HCC70 = test system: HCC70
Outline: as §1

HS578T = test system: HS578T
Outline: as §1

LY2 = test system: LY2
Outline: as §1

MCF10F = test system: MCF10F
Outline: as §1

MCF12A = test system: MCF12A
Outline: as §1

MDAMB175VII = test system: MDAMB175VII
Outline: as §1

MDAMB231 = test system: MDAMB231
Outline: as §1

MDAMB361 = test system: MDAMB361
Outline: as §1

MDAMB415 = test system: MDAMB415
Outline: as §1

SKBR3 = test system: SKBR3
Outline: as §1

SUM149PT = test system: SUM149PT
Outline: as §1

SUM159PT = test system: SUM159PT
Outline: as §1

SUM229PE = test system: SUM229PE
Outline: as §1

T47D = test system: T47D
Outline: as §1

UACC812 = test system: UACC812
Outline: as §1

Structure (SMILES) | -log10 GI50 (184A1) | -log10 GI50 (BT483) | -log10 GI50 (HCC1187) | -log10 GI50 (HCC1954) | -log10 GI50 (HCC38) | -log10 GI50 (HCC70) | -log10 GI50 (HS578T) | -log10 GI50 (LY2) | -log10 GI50 (MCF10F) | -log10 GI50 (MCF12A) | -log10 GI50 (MDAMB175VII) | -log10 GI50 (MDAMB231) | -log10 GI50 (MDAMB361) | -log10 GI50 (MDAMB415) | -log10 GI50 (SKBR3) | -log10 GI50 (SUM149PT) | -log10 GI50 (SUM159PT) | -log10 GI50 (SUM229PE) | -log10 GI50 (T47D) | -log10 GI50 (UACC812)
CCNCCCCNCCCCNCCCCNCCCCNC/C=C/CNCCCCNCCCCNCCCCNCCCCNCC | 6.32 | 6.25 | 6.15 | 6.57 | 6.81 | 6.55 | 4.93 | 5.18 | 5.96 | 6.2 | 6.79 | 4.67 | 5.78 | 6.63 | 5.31 | 6.53 | 6.6 | 6.24 | 6.97 | 6.78
N.N.[Cl][Pt][Cl] [Cisplatin] | 5.53 | 4.05 | 5.67 | 5.29 | 5.78 | 5.8 | 5.16 | 5.11 | 5.42 | 4.18 | 5.37 | 4.65 | 5.06 | 3.84 | 4.77 | 5.8 | 5.4 | 5.26 | 5.27 | 5.48
O=C(CCCCCCC(=O)Nc1ccccc1)NO [Vorinostat] | 3.87 | 4.23 | 4.79 | 3.95 | 4.47 | 4.46 | 3.53 | 3.86 | 3.08 | 3.77 | 4.29 | 4.11 | 4.26 | 3.96 | 4.32 | 4.02 | 3.92 | 4.02 | 3.97 | 4.37
C=CCNC1=C2C[C@@H](C)C[C@H](OC)[C@H](O)[C@@H](C)/C=C(\C)[C@H](OC(N)=O)[C@@H](OC)/C=C\C=C(/C)C(=O)NC(=CC1=O)C2=O [17-AAG] | 7.93 | 6.68 | 5.29 | 7.5 | 7.24 | 6.62 | 6.96 | 6.99 | 7.5 | 7.48 | 7.39 | 6.11 | 7.29 | 7.45 | 7.55 | 7.01 | 7.46 | 7.56 | 5.97 | 7.96
COc1cc2ncnc(Nc3ccc(F)c(Cl)c3)c2cc1OCCCN1CCOCC1 [Gefitinib] | < 4.48 | 5.21 | 4.53 | 5.92 | 4.75 | 5.05 | 4.76 | 4.62 | 6.16 | 6.17 | 6.55 | < 4.48 | 5.03 | 5.09 | 5.56 | 5.62 | 5.07 | 5.21 | 4.8 | 6.04
O=c1[nH]c(=O)n([C@H]2C[C@H](O)[C@@H](CO)O2)cc1F [Floxuridine] | 3.67 | 4.15 | 3.81 | 3.99 | 3.79 | 3.67 | 3.52 | 5.63 | 4.34 | 4.86 | 4.69 | 3.32 | 3.4 | 4.5 | 3.66 | 4.12 | 4.49 | 4.16 | 3.48 | 4.11
C/C(=C\c1csc(C)n1)[C@@H]1C[C@@H]2O[C@]2(C)CCC[C@H](C)[C@H](O)[C@@H](C)C(=O)C(C)(C)[C@@H](O)CC(=O)N1 [Ixabepilone] | 6.67 | 5.27 | 8.66 | 8.71 | 8.55 | 8.85 | 8.62 | 8.22 | 8.08 | 8.13 | 7.03 | 9.34 | 8.64 | 8.41 | 7.99 | 8.26 | 8.16 | 8.72 | 8.26 | 5.24
CCCC(CCC)C(=O)O [Valproic acid] | 3 | 3.01 | 2.78 | 2.52 | 3.05 | 2.99 | 2.32 | 2.96 | 2.42 | 2.74 | 2.96 | 2.16 | 2.82 | 3.06 | 3.04 | 2.86 | 2.91 | 2.65 | 2.53 | 2.59
CC(=O)O[C@@]12CO[C@@H]1C[C@H](O)[C@@]1(C)C(=O)[C@H](O)C3=C(C)[C@@H](OC(=O)[C@H](O)[C@@H](NC(=O)OC(C)(C)C)c4ccccc4)C[C@@](O)([C@@H](OC(=O)c4ccccc4)[C@H]21)C3(C)C [Docetaxel] | 6.13 | 7.65 | 8.61 | 8.78 | 8.69 | 8.49 | 8.76 | 8.2 | 8.59 | 8.59 | 7.8 | 8.66 | 7.92 | 8.48 | 8 | 8.76 | 8.77 | 7.94 | 8.51 | 8.39
CC(=O)O[C@H]1C(=O)[C@@]2(C)[C@H]([C@H](OC(=O)c3ccccc3)[C@]3(O)C[C@H](OC(=O)[C@H](O)[C@@H](NC(=O)c4ccccc4)c4ccccc4)C(C)=C1C3(C)C)[C@]1(OC(C)=O)CO[C@@H]1C[C@@H]2O [Paclitaxel] | 7.35 | 7 | 8.05 | 8.15 | 8.13 | 8.03 | 8.38 | 7.97 | 8.08 | 7.97 | 7.74 | 8.37 | 7.79 | 8.18 | 7.94 | 8.03 | 8.24 | 7.72 | 8.02 | 8.08
